Test results from patent US12551532B2, “Long-acting amylin receptor agonists and uses thereof” (Eli Lilly and Company, priority 2021, dated 2026).
Starred links: 1 amine or outer side, 2 acyl side, 3 side chain; linkers in the order of their positions; H or OH if unused. Positions of bridges follow the written chain, without caps; N, C: chain ends. Non-standard residues stand in square brackets, D forms with d. Residues, ends and D or L forms follow the SMILES beside them. Groups on a side chain read outwards from the residue. *: point of attachment. C20 diacid = O=C(O)CCCCCCCCCCCCCCCCCCC(=O)*; γGlu = O=C(O)[C@H](CCC(=O)[*:2])N[*:1]; αMeL = CC(C)C[C@](C)(N)C(=O)O; Orn = NCCC[C@H](N)C(=O)O; CH2 = C([*:1])[*:2]

Key:
[1] = biological target: T1, hAMY1R (Homo sapiens, UniProt O60894+P30988); assay: hAMY1R cAMP functional activity (HTRF); type: cell-based; settings: ±SE; UMUC3 cells overexpressing hAMY1R; relative EC50
T1 construct: expressed in transfected cells
Outline: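 UMUC3 cells expressing hCTR plus transfected human RAMP1 (AMY1R) were treated with peptide in a 1:3 dilution series at 1500 cells/well for 1 h at room temperature. Intracellular cAMP was measured by HTRF after 60 min lysis-detection and converted to pmol/well against a standard curve for each run.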

[2] = system: human dendritic cells; type: cell-based
Description: MAPPS profiles the MHC-II presented peptides on human dendritic cells treated with tested molecules. CD14+ cells, isolated from the PBMCs of normal human donors, are cultured and differentiated into immature DCs by incubation with IL-4 and GM-CSF. On day 4, culture media is replaced with fresh media containing tested molecules. On day 5, LPS is added to transform the cells into mature DCs. On day 6, cells are lysed in RIPA buffer with protease inhibitors. Immunoprecipitation of MHC-II complexes are performed using biotinylated anti-MHC-II antibody coupled to streptavidin beads. The bound complex is eluted and filtered. The isolated MHC-II peptides are analyzed by a mass spectrometer. Peptide identifications are generated by an internal proteomics pipeline using search algorithms with no enzyme and a bovine/human database with test sequences appended to the database. A KNIME workflow is used to process the identification files from the samples. Peptides identified from the test articles are aligned against the parent sequence of the test molecule. The output is used to determine the percentage of donors displaying MHC-II peptides from regions of the test molecule. Compound II, Compound IV, Compound VI, Compound VIII, a compound representative of U.S. Pat. No. 9,023,789 (hereinafter “Compound '789”), and Pramlintide are tested in the MAPPs assay.

[3] = Pharmacokinetics in male Sprague Dawley rats; type: in vivo; settings: single SC 30 nmol/kg, mean
Description: The pharmacokinetics of Compound II (SEQ ID NO:2), Compound IV (SEQ ID NO:4), Compound VI (SEQ ID NO:6), and Compound VIII (SEQ ID NO:8) are evaluated following a single subcutaneous administration of 30 nmol/kg to male Sprague Dawley rats. Blood samples are collected at 1, 3, 6, 12, 24, 48, 72, 96 hours post SC dose. The resulting individual plasma concentrations are used to calculate pharmacokinetic parameters. Peptide plasma (K3EDTA) concentrations are determined using a qualified LC/MS method that measured the intact mass of the peptides. Each peptide and an analog as an internal standard are extracted from plasma. A high resolution Thermo Q-Exactive is used for LC/MS detection.

[4] = system: pre-existing antibodies (ADA) in normal human serum; assay: Pre-existing reactivity (ACE assay format); settings: >50 donors; treatment-naive normal human serum
Description: This assay assesses the presence of pre-existing antibodies (ADA) against the tested molecules in treatment-naive normal human serum (NHS). Diluted NHS is incubated overnight on a Pierce Streptavidin plate coated with biotinylated tested molecules. On the following day, the captured binding proteins are acid eluted, hard-coated to a Mesoscale (MSD) plate, and detected with a combination of biotin-labeled molecule and ruthenium-labeled streptavidin. If anti-drug antibodies are present, they will bind the labeled drug and the resulting signal is referred to as Tier 1 signal (expressed as electrochemiluminescence). This signal is confirmed in Tier 2 by adding excess unlabeled tested molecule in the detection step, which results in the suppression of the Tier 1 signal. The presence of pre-existing anti-drug antibodies is expressed as magnitude of the 90th percentile of Tier 2 inhibition. The 90th percentile of Tier 2 inhibition, is a statistical tool to assess the magnitude of specificity of Tier 1 reactivity. This 90th percentile is used to rank molecules in terms of ADA risk.

[5] = Food intake and body weight in normal rats, single SC dose; type: in vivo, Sprague Dawley rats; settings: for Δ Body Weight: 96 hours post dose vs initial weights; for Cumulative Food Intake Change vs Vehicle: 96 hours post dose vs vehicle
Description: Male Sprague Dawley rats from Envigo RMS (Indianapolis, IN) are maintained on a chow diet (2014; Teklad Global, Envigo RMS, Indianapolis, IN) and single housed in a temperature-controlled facility (72.0° F.; 22.2° C.) with a reversed 12:12-hour light cycle (10 AM OFF) and free access to food and water. At 10 weeks of age, non-fasted body weights and initial food weights are recorded, and animals are administered a single subcutaneous injection (SC) of vehicle or acylated peptide (1 mL/kg), followed by daily measurements of body weight and food intake for 4 days post dose. Area under the curve analysis (AUC) is calculated for both body weight and food intake versus vehicle.

T1 sequence (P30988 25-474): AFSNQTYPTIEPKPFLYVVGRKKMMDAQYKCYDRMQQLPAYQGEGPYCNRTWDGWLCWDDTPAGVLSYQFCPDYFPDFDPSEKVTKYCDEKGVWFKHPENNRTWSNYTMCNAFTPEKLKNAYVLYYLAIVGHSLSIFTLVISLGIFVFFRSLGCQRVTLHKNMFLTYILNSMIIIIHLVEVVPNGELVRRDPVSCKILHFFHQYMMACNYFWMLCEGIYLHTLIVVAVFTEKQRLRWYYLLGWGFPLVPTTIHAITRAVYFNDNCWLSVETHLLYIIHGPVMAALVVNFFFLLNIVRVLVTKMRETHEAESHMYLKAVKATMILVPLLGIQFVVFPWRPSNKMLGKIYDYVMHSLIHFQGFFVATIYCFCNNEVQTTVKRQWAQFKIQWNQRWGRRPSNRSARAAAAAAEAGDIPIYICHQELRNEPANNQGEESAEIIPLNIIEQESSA
T1 sequence (O60894 27-148 partner): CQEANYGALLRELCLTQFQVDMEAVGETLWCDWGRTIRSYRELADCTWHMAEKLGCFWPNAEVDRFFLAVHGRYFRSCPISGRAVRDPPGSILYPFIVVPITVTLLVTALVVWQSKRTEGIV

EC50 [1]: 0.107 ± 0.02 nM
MAPPS Assay donors displayed peptides [2]: no peptides
MAPPS Assay immunogenicity risk [2]: Low Risk
CL/F ([3]; rat, plasma, n = 3): 3.7 mL/h/kg
Tmax ([3]; rat, plasma, n = 3): 16 ± 6.9 h
half-life ([3]; rat, plasma, n = 3, read-out: T l/2 (converted)): 36.4 ± 2.93 h
AUCINF/D ([3]; n = 3): 270 ± 22.4 hr * kg * nmol/L/nmol
Cmax/D ([3]; n = 3): 3.8 ± 0.4 kg * nmol/L/nmol
Pre-existing Reactivity 90th percentile T2 inhibition [4]: 51.4%
Compound: CC[C@H](C)[C@H](NC(=O)[C@@H]1CCCN1C(=O)CNC(=O)[C@H](Cc1ccccc1)NC(=O)[C@H](CC(N)=O)NC(=O)[C@H](Cc1c[nH]cn1)NC(=O)[C@H](CO)NC(=O)[C@H](CO)NC(=O)[C@H](CCCNC(=N)N)NC(=O)[C@@H](NC(=O)[C@H](CC(C)C)NC(=O)[C@H](Cc1ccccc1)NC(=O)[C@H](CCC(=O)O)NC(=O)[C@H](C)NC(=O)[C@](C)(CC(C)C)NC(=O)[C@H](CCCN)NC(=O)CNC(=O)[C@@H](NC(=O)[C@H](C)NC(=O)[C@@H]1CSCSC[C@H](NC(=O)[C@@H](N)CCCCNC(=O)CC[C@H](NC(=O)CC[C@H](NC(=O)CCCCCCCCCCCCCCCCCCC(=O)O)C(=O)O)C(=O)O)C(=O)N[C@@H](CCC(=O)O)C(=O)N[C@@H]([C@@H](C)O)C(=O)N[C@@H](C)C(=O)N[C@@H]([C@@H](C)O)C(=O)N1)[C@@H](C)O)C(C)C)C(=O)N[C@@H](CC(C)C)C(=O)N1CCC[C@H]1C(=O)N1CCC[C@H]1C(=O)N[C@H](C(=O)N[C@@H](CCC(=O)O)C(=O)N[C@H](C(=O)NCC(=O)N[C@@H](CO)C(=O)N[C@@H](CC(N)=O)C(=O)N[C@H](C(=O)N[C@@H](Cc1ccc(O)cc1)C(N)=O)[C@@H](C)O)C(C)C)[C@@H](C)O [Compound VIII] (H-K([γGlu-γGlu-C20 diacid])CETATCATG[Orn][αMeL]AEFLVRSSHNFGPILPPTEVGSNTY-NH2; linker 2-7 via CH2)
peptides displayed on MHC-II complexes [2]: no peptides displayed on MHC-II complexes
Δ Body Weight ([5]; 0.1 nmol/kg SC single dose): 2.0%
Cumulative Food Intake Change vs Vehicle ([5]; 0.1 nmol/kg SC single dose): 1.3%
Δ Body Weight ([5]; 0.3 nmol/kg SC single dose): 1.6%
Cumulative Food Intake Change vs Vehicle ([5]; 0.3 nmol/kg SC single dose): 3.2%
Δ Body Weight ([5]; 1 nmol/kg SC single dose): −1.0%
Cumulative Food Intake Change vs Vehicle ([5]; 1 nmol/kg SC single dose): −17.5%
Δ Body Weight ([5]; 3 nmol/kg SC single dose): −3.9%
Cumulative Food Intake Change vs Vehicle ([5]; 3 nmol/kg SC single dose): −37.7%
Δ Body Weight ([5]; 10 nmol/kg SC single dose): −7.2%
Cumulative Food Intake Change vs Vehicle ([5]; 10 nmol/kg SC single dose): −58.5%
Δ Body Weight ([5]; 30 nmol/kg SC single dose): −10.8%
Cumulative Food Intake Change vs Vehicle ([5]; 30 nmol/kg SC single dose): −67.0%
Δ Body Weight ([5]; 100 nmol/kg SC single dose): −13.8%
Cumulative Food Intake Change vs Vehicle ([5]; 100 nmol/kg SC single dose): −75.2%
Δ Body Weight ([5]; 300 nmol/kg SC single dose): −13.6%
Cumulative Food Intake Change vs Vehicle ([5]; 300 nmol/kg SC single dose): −74.9%
Δ Body Weight ([5]; 1000 nmol/kg SC single dose): −18.9%
Cumulative Food Intake Change vs Vehicle ([5]; 1000 nmol/kg SC single dose): −84.7%
